Assay: method code SF-FL/RC, from DOI: 10.1007/bf00499868, PMID: 43479
Conditions: for logD: pH 7.4

Compound	logP	logD
CNC[C@H](O)c1ccc(O)c(O)c1	-1.37	
C[C@H](N)[C@H](O)c1cccc(O)c1	-0.27	
CC(N)C(O)c1ccc(O)c(O)c1 (stereo unspecified)	-1.43	
CNCC(O)c1ccc(O)cc1 (stereo unspecified)	-0.45	
COc1cc(CCO)ccc1O		0.47
COc1cc(CCN)ccc1O	-0.08	
CNCC(O)c1ccc(O)c(OC)c1 (stereo unspecified)	-0.64	
COc1cc(C(O)CO)ccc1O (stereo unspecified)		-0.58
COc1cc(C(O)CN)ccc1O (stereo unspecified)	-1.05	
OCC(O)c1ccc(O)c(O)c1 (stereo unspecified)		-1.01
NCC(O)c1ccc(O)cc1 (stereo unspecified)	-0.75	

From the SangsterLogP compilation
